ChEMBL document CHEMBL4334509, “Garcinol and Related Polyisoprenylated Benzophenones as Topoisomerase II Inhibitors: Biochemical and Molecular Modeling Studies” (J Nat Prod, 2019)
Calls of active or inactive are those of the source. The rule behind the calls is not given here.

What was measured:
DNA topoisomerase 2-beta [1] = target: T1, DNA topoisomerase 2-beta (Homo sapiens, UniProt Q02880); experiment: Inhibition of human topoisomerase 2beta-mediated relaxation of supercoiled pSG483 DNA at 12.5 to 200 uM after 30 mins by ethidium bromide staining based agarose gel electrophoresis method
[2] = target: T2, DNA topoisomerase 2-alpha (Homo sapiens, UniProt P11388); experiment: Inhibition of human topoisomerase 2alpha-mediated relaxation of supercoiled pSG483 DNA at 12.5 to 200 uM after 30 mins by ethidium bromide staining based agarose gel electrophoresis method
DNA topoisomerase 2-beta [3] = target: T1, DNA topoisomerase 2-beta; experiment: Inhibition of human topoisomerase 2beta-mediated DNA cleavage assessed as formation of nicking in DNA at 200 uM using supercoiled pSG483 as substrate after 30 mins by ethidium bromide based gel electrophoresis method
[4] = target: T2, DNA topoisomerase 2-alpha; experiment: (§1) Mixed-type inhibition of topoisomerase 2alpha ATPase activity (unknown origin) assessed as apparent Vmax per mg protein at 25 uM using salmon sperm DNA as substrate measured every 30 secs for 90 mins in presence of ATP by pyruvate kinase/lactate dehydrogenase enzyme coupled assay (reference value: 136.7 +/- 14.7 mM/min)
[5] = target: T2, DNA topoisomerase 2-alpha; experiment: Inhibition of human topoisomerase 2alpha-mediated DNA cleavage at 12.5 to 200 uM using supercoiled pSG483 as substrate after 30 mins by ethidium bromide staining based gel electrophoresis method
DNA topoisomerase 2-beta [6] = target: T1, DNA topoisomerase 2-beta; experiment: Inhibition of human topoisomerase 2beta-mediated DNA cleavage at 12.5 to 200 uM using supercoiled pSG483 as substrate after 30 mins by ethidium bromide staining based gel electrophoresis method
[7] = target: T2, DNA topoisomerase 2-alpha; experiment: as §1, with “20” for “25”
[8] = target: T2, DNA topoisomerase 2-alpha; experiment: as §1, with “50” for “25”
[9] = target: T2, DNA topoisomerase 2-alpha; experiment: Poison activity at human topoisomerase 2alpha assessed as linear DNA formation at 12.5 to 200 uM after 30 mins by ethidium bromide staining based agarose gel electrophoresis method
DNA = experiment: Induction of plasmid DNA (unknown origin) intercalation at 7.81 to 500 uM after 30 mins by ethidium bromide staining based agarose gel electrophoresis method; type: nucleic-acid assay
[10] = target: T2, DNA topoisomerase 2-alpha; experiment: Inhibition of human topoisomerase 2alpha-mediated relaxation of supercoiled pSG483 DNA after 30 mins by ethidium bromide staining based agarose gel electrophoresis method
DNA topoisomerase 2-beta [11] = target: T1, DNA topoisomerase 2-beta; experiment: Inhibition of human topoisomerase 2beta-mediated relaxation of supercoiled pSG483 DNA after 30 mins by ethidium bromide staining based agarose gel electrophoresis method
[12] = compound: C=C(C)[C@H](CC=C(C)C)C[C@]12C[C@H](CC=C(C)C)C(C)(C)[C@](CC=C(C)C)(C(=O)C(C(=O)c3ccc(O)c(O)c3)=C1O)C2=O; experiment: Mixed-type inhibition of topoisomerase 2alpha ATPase activity (unknown origin) assessed as apparent Km at 50 uM using salmon sperm DNA as substrate measured every 30 secs for 90 mins in presence of ATP by pyruvate kinase/lactate dehydrogenase enzyme coupled assay (reference value: 0.4 +/- 0.1 mM); conditions: Homo sapiens
[13] = compound: CC(C)=CCC/C(C)=C/C[C@@]12C[C@H](CC=C(C)C)C(C)(C)[C@@](CC=C(C)C)(C(=O)C(C(=O)c3ccc(O)c(O)c3)=C1O)C2=O; experiment: Mixed-type inhibition of topoisomerase 2alpha ATPase activity (unknown origin) assessed as apparent Km at 20 uM using salmon sperm DNA as substrate measured every 30 secs for 90 mins in presence of ATP by pyruvate kinase/lactate dehydrogenase enzyme coupled assay (reference value: 0.4 +/- 0.1 mM); conditions: Homo sapiens
[14] = compound: C=C(C)[C@H](CC=C(C)C)C[C@]12C[C@H](CC=C(C)C)C(C)(C)[C@](CC=C(C)C)(C(=O)C(C(=O)c3ccc(O)c(O)c3)=C1O)C2=O; experiment: (§2) Mixed-type inhibition of topoisomerase 2alpha ATPase activity (unknown origin) assessed as apparent Km at 25 uM using salmon sperm DNA as substrate measured every 30 secs for 90 mins in presence of ATP by pyruvate kinase/lactate dehydrogenase enzyme coupled assay (reference value: 0.4 +/- 0.1 mM); conditions: Homo sapiens
[15] = compound: CC(C)=CCC[C@@]1(C)[C@H](CC=C(C)C)C[C@]2(CC=C(C)C)C(=O)[C@@]1(CC=C(C)C)C(=O)C(C(=O)c1ccc(O)c(O)c1)=C2O; experiment: as §2; conditions: Homo sapiens
[16] = compound: CC(C)=CCC/C(C)=C/C[C@@]12C[C@H](CC=C(C)C)C(C)(C)[C@@](CC=C(C)C)(C(=O)C(C(=O)c3ccc(O)c(O)c3)=C1O)C2=O; experiment: (§3) Mixed-type inhibition of topoisomerase 2alpha ATPase activity (unknown origin) assessed as apparent Km at 5 uM using salmon sperm DNA as substrate measured every 30 secs for 90 mins in presence of ATP by pyruvate kinase/lactate dehydrogenase enzyme coupled assay (reference value: 0.4 +/- 0.1 mM); conditions: Homo sapiens
[17] = compound: CC(C)=CCC[C@@]1(C)[C@H](CC=C(C)C)C[C@]2(CC=C(C)C)C(=O)[C@@]1(CC=C(C)C)C(=O)C(C(=O)c1ccc(O)c(O)c1)=C2O; experiment: as §3; conditions: Homo sapiens
[18] = compound: CC(C)=CCC/C(C)=C/C[C@@]12C[C@H](CC=C(C)C)C(C)(C)[C@@](CC=C(C)C)(C(=O)C(C(=O)c3ccc(O)c(O)c3)=C1O)C2=O; experiment: (§4) Mixed-type inhibition of topoisomerase 2alpha ATPase activity (unknown origin) assessed as apparent Km at 10 uM using salmon sperm DNA as substrate measured every 30 secs for 90 mins in presence of ATP by pyruvate kinase/lactate dehydrogenase enzyme coupled assay (reference value: 0.4 +/- 0.1 mM); conditions: Homo sapiens
[19] = compound: C=C(C)[C@H](CC=C(C)C)C[C@]12C[C@H](CC=C(C)C)C(C)(C)[C@](CC=C(C)C)(C(=O)C(C(=O)c3ccc(O)c(O)c3)=C1O)C2=O; experiment: as §4; conditions: Homo sapiens
[20] = compound: CC(C)=CCC[C@@]1(C)[C@H](CC=C(C)C)C[C@]2(CC=C(C)C)C(=O)[C@@]1(CC=C(C)C)C(=O)C(C(=O)c1ccc(O)c(O)c1)=C2O; experiment: as §4; conditions: Homo sapiens

T1 sequence (Q02880 whole entry): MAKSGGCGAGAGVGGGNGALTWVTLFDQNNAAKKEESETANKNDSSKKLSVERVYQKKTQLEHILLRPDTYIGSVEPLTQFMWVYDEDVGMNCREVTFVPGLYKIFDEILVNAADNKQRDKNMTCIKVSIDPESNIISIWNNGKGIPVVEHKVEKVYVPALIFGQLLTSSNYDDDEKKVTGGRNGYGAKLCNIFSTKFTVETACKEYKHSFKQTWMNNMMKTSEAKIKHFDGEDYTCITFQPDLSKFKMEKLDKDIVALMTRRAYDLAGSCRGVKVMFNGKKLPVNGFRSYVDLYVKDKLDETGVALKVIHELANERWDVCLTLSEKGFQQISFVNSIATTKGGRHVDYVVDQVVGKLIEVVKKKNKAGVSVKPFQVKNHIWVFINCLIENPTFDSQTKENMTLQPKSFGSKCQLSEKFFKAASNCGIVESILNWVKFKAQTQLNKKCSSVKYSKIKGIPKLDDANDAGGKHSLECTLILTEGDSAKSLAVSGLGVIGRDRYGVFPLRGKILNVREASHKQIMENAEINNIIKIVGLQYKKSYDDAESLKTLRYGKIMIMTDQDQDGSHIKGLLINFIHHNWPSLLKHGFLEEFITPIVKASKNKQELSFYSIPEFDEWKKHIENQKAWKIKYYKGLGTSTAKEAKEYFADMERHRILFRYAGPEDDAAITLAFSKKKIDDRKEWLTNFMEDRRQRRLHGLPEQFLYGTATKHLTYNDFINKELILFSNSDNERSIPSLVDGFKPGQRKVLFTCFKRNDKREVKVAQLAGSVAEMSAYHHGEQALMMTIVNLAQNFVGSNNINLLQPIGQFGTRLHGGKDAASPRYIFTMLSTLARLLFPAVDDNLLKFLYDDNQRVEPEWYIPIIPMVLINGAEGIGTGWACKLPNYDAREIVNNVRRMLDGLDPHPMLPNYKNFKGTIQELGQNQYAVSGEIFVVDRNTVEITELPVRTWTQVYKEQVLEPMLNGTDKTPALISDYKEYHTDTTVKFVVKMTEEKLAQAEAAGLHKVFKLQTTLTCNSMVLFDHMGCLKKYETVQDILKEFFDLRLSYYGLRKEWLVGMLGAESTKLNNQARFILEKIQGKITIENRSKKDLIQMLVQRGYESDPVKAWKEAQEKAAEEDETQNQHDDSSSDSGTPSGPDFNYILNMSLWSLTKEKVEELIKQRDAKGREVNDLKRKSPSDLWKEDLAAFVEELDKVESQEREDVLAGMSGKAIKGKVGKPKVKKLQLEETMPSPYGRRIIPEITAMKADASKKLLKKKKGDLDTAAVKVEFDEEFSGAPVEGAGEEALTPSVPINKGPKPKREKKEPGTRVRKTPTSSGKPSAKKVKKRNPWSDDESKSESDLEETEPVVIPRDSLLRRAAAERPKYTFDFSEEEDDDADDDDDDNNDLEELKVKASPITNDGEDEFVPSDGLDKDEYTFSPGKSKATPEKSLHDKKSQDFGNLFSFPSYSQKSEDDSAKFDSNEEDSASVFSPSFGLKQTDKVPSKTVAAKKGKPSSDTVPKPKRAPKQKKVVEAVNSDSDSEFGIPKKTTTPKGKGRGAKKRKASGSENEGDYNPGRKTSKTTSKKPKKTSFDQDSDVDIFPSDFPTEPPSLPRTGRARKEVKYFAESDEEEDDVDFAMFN

Row | inhibition (DNA topoisomerase 2-beta [1]) | inhibition [2] | inhibition [5] | inhibition (DNA topoisomerase 2-beta [6]) | Molecule | also measured
1 | Active | Active | Active | Active | CC(C)=CCC[C@@]1(C)[C@H](CC=C(C)C)C[C@]2(CC=C(C)C)C(=O)[C@@]1(CC=C(C)C)C(=O)c1c2oc2cc(O)c(O)cc2c1=O | –
2 | Active | Active | Active | Active | CC(C)=CCC[C@@]1(C)[C@H](CC=C(C)C)C[C@@]2(CC=C(C)C)C(=O)c3c(oc4cc(O)c(O)cc4c3=O)[C@]1(CC=C(C)C)C2=O | –

The next lines start with the molecule.

Row | Molecule | inhibition (DNA topoisomerase 2-beta [1]) | inhibition [2] | inhibition [5] | inhibition (DNA topoisomerase 2-beta [6]) | also measured
3 | CC(C)=CCC/C(C)=C/C[C@]12C[C@H](CC=C(C)C)C(C)(C)[C@](CC=C(C)C)(C1=O)c1oc3cc(O)c(O)cc3c(=O)c1C2=O | Active | Active | – | – | inhibition (DNA topoisomerase 2-beta [3]): inactive
4 | CC(C)=CCC[C@@]1(C)[C@H](CC=C(C)C)C[C@]2(CC=C(C)C)C(=O)[C@@]1(CC=C(C)C)C(=O)C(C(=O)c1ccc(O)c(O)c1)=C2O | Active | Active | Active | Active | Vmax(app) [4]: 93 mM/min
5 | CC(C)=CCC/C(C)=C/C[C@@]12C[C@H](CC=C(C)C)C(C)(C)[C@@](CC=C(C)C)(C(=O)C(C(=O)c3ccc(O)c(O)c3)=C1O)C2=O | Active | Active | Active | Active | Vmax(app) [7]: 53.6 mM/min
6 | C=C(C)[C@H](CC=C(C)C)C[C@]12C[C@H](CC=C(C)C)C(C)(C)[C@](CC=C(C)C)(C(=O)C(C(=O)c3ccc(O)c(O)c3)=C1O)C2=O | – | – | – | – | Vmax(app) [8]: 84.7 mM/min; Activity [9]: inactive; Activity (DNA): inactive; Vmax(app) [4]: 94 mM/min; IC50 [10]: 101 µM; IC50 (DNA topoisomerase 2-beta [11]): 101 µM
7 | DNA topoisomerase 2-alpha (Homo sapiens), P11388 (protein) MEVSPLQPVNENMQVNKIKKNEDAKKRLSVERIYQKKTQLEHILLRPDTYIGSVELVTQQMWVYDEDVGINYREVTFVPGLYKIFDEILVNAADNKQRDPKMSCIRVTIDPENNLISIWNNGKGIPVVEHKVEKMYVPALIFGQLLTSSNYDDDEKKVTGGRNGYGAKLCNIFSTKFTVETASREYKKMFKQTWMDNMGRAGEMELKPFNGEDYTCITFQPDLSKFKMQSLDKDIVALMVRRAYDIAGSTKDVKVFLNGNKLPVKGFRSYVDMYLKDKLDETGNSLKVIHEQVNHRWEVCLTMSEKGFQQISFVNSIATSKGGRHVDYVADQIVTKLVDVVKKKNKGGVAVKAHQVKNHMWIFVNALIENPTFDSQTKENMTLQPKSFGSTCQLSEKFIKAAIGCGIVESILNWVKFKAQVQLNKKCSAVKHNRIKGIPKLDDANDAGGRNSTECTLILTEGDSAKTLAVSGLGVVGRDKYGVFPLRGKILNVREASHKQIMENAEINNIIKIVGLQYKKNYEDEDSLKTLRYGKIMIMTDQDQDGSHIKGLLINFIHHNWPSLLRHRFLEEFITPIVKVSKNKQEMAFYSLPEFEEWKSSTPNHKKWKVKYYKGLGTSTSKEAKEYFADMKRHRIQFKYSGPEDDAAISLAFSKKQIDDRKEWLTNFMEDRRQRKLLGLPEDYLYGQTTTYLTYNDFINKELILFSNSDNERSIPSMVDGLKPGQRKVLFTCFKRNDKREVKVAQLAGSVAEMSSYHHGEMSLMMTIINLAQNFVGSNNLNLLQPIGQFGTRLHGGKDSASPRYIFTMLSSLARLLFPPKDDHTLKFLYDDNQRVEPEWYIPIIPMVLINGAEGIGTGWSCKIPNFDVREIVNNIRRLMDGEEPLPMLPSYKNFKGTIEELAPNQYVISGEVAILNSTTIEISELPVRTWTQTYKEQVLEPMLNGTEKTPPLITDYREYHTDTTVKFVVKMTEEKLAEAERVGLHKVFKLQTSLTCNSMVLFDHVGCLKKYDTVLDILRDFFELRLKYYGLRKEWLLGMLGAESAKLNNQARFILEKIDGKIIIENKPKKELIKVLIQRGYDSDPVKAWKEAQQKVPDEEENEESDNEKETEKSDSVTDSGPTFNYLLDMPLWYLTKEKKDELCRLRNEKEQELDTLKRKSPSDLWKEDLATFIEELEAVEAKEKQDEQVGLPGKGGKAKGKKTQMAEVLPSPRGQRVIPRITIEMKAEAEKKNKKKIKNENTEGSPQEDGVELEGLKQRLEKKQKREPGTKTKKQTTLAFKPIKKGKKRNPWSDSESDRSSDESNFDVPPRETEPRRAATKTKFTMDLDSDEDFSDFDEKTDDEDFVPSDASPPKTKTSPKLSNKELKPQKSVVSDLEADDVKGSVPLSSSPPATHFPDETEITNPVPKKNVTVKKTAAKSQSSTSTTGAKKRAAPKGTKRDPALNSGVSQKPDPAKTKNRRKRKPSTSDDSDSNFEKIVSKAVTSKKSKGESDDFHMDFDSAVAPRAKSVRAKKPIKYLEESDEDDLF | – | – | – | – | Km [12]: 800 µM; Km [13]: 1600 µM; Km [14]: 700 µM; Km [15]: 1000 µM; Km [16]: 600 µM; Km [17]: 600 µM; Km [18]: 900 µM; Km [19]: 300 µM; Km [20]: 800 µM
